Laboratory results from article PMC7834858 (Antiviral Research, 2020).
Where two headings read alike, the source gives them in different places.

Assays:
SARS-CoV-2 3CLpro = SARS-CoV-2 3CLpro (Severe acute respiratory syndrome coronavirus 2, UniProt P0DTD1); type: biochemical
[1] = test system: human beta-coronavirus OC43–CoV; assay: OC43-CoV cytopathic effect antiviral assay in HeLa cells; type: cell-based
[2] = test system: human beta-coronavirus OC43–CoV; assay: OC43-CoV cytopathic effect antiviral assay in MRC-5 cells; type: cell-based; settings: MRC5, 120 h, read-out: OC-43 MRC-5 Cells EC50
SARS-CoV-2 = type: cell-based
COVID-19 = COVID-19 hospitalized patients; ref Beigel et al., 2020; cited from earlier work
[3] = no reducing agent vs 1 mM GSH vs 1 mM DTT

O=c1c2ccccc2[se]n1-c1ccccc1 [Ebselen]
Concentrations at which SARS-CoV-2 3CLpro was inhibited (SARS-CoV-2 3CLpro): > 30 µM | Effect of reducing conditions on inhibition potency (SARS-CoV-2 3CLpro): impacted by the reducing condition | Inhibition of SARS-CoV-2 3CLpro activity in SAMDI-MS assay (in words) (SARS-CoV-2 3CLpro): did not inhibit | Antiviral activity against OC43 (in words) [1]: inactive | EC50 [2]: > 100 µM | Inhibition of SARS-CoV-2 replication (in words) (SARS-CoV-2): did not inhibit SARS-CoV-2 replication | Cytotoxicity (in words) (HeLa cells): cytotoxic | Toxicity to Vero cells (in words) (VeroE6 cells): toxic to Vero cells

CCC(CC)COC(=O)[C@H](C)N[P@](=O)(OC[C@H]1O[C@@](C#N)(c2ccc3c(N)ncnn23)[C@H](O)[C@@H]1O)Oc1ccccc1 [Remdesivir]
EC50 [2]: 0.21 µM | Effect on mortality (COVID-19): no significant effect

CCN(CC)C(=S)SSC(=S)N(CC)CC [Disulfiram]
Concentrations at which SARS-CoV-2 3CLpro was inhibited (SARS-CoV-2 3CLpro; absence of reducing agent only): > 30 µM | Effect of reducing conditions on inhibition potency (SARS-CoV-2 3CLpro; [3]): impacted by the reducing condition | Inhibition of SARS-CoV-2 3CLpro activity in SAMDI-MS assay (in words) (SARS-CoV-2 3CLpro; reducing conditions (DTT)): did not inhibit | Antiviral activity against OC43 (in words) [1]: inactive | EC50 [2]: > 100 µM | Inhibition of SARS-CoV-2 replication (in words) (SARS-CoV-2): did not inhibit SARS-CoV-2 replication

CC(C)=CC[C@@H](O)C1=CC(=O)c2c(O)ccc(O)c2C1=O [Shikonin]
Effect of reducing conditions on inhibition potency (SARS-CoV-2 3CLpro; [3]): marked loss of inhibition in the presence of DTT or GSH | Inhibition of SARS-CoV-2 3CLpro activity in SAMDI-MS assay (in words) (SARS-CoV-2 3CLpro; reducing conditions (DTT)): failed to inhibit | Inhibition of SARS-CoV-2 3CLpro activity in SAMDI-MS assay (in words) (SARS-CoV-2 3CLpro; reducing conditions (DTT), listed as shikonin): did not inhibit | Antiviral activity against OC43 (in words) [1]: inactive | EC50 [2]: > 100 µM | Inhibition of SARS-CoV-2 replication (in words) (SARS-CoV-2): did not inhibit SARS-CoV-2 replication | Cytotoxicity (in words) (HeLa cells): cytotoxic | Toxicity to Vero cells (in words) (VeroE6 cells): toxic to Vero cells
